Molecular target: KRas G12C (Homo sapiens, UniProt P01116, G12C)
Assay: Cellular inhibition of KRas G12C measured by Phospho-ERK in NCI-H358 cells
Type: cell-based
Settings: pERK(Thr202/Tyr204) normalized with GAPDH, NCI-H358 cells, 3 hours; read-out: IC50
Summary of the method: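 NCI-H358 cells treated 3 h with compound (0.5% DMSO final), then fixed and methanol-permeabilised. In-cell immunofluorescence measured pERK(Thr202/Tyr204) normalised to GAPDH as percent of DMSO control. IC50 from a 4-parameter dose-response fit.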

KRas G12C, sequence (P01116 1-188 isoform P01116-2 G12C): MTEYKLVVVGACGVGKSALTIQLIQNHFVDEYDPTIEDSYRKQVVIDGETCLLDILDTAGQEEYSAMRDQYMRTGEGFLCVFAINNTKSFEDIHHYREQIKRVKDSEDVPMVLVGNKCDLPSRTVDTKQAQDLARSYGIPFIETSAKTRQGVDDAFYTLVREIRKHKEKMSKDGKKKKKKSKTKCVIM

Row | SMILES | IC50 [µM]
1 | C=CC(=O)N1CCN(c2nc(OC[C@H]3COCCN3C)nc3c2CCN(c2cccc4ccccc24)C3)CC1CC#N (stereo partly drawn) [Example 446, 2-(1-Acryloyl-4-(2-(((R)-4-methylmorpholin-3-yl)methoxy)-7-(naphthalen-1-yl)-5,6,7,8-tetrahydropyrido[3,4-d]pyrimidin-4-yl)piperazin-2-yl)acetonitrile] | > 1
2 | C=CC(=O)N1CCN(c2nc(OCCCN3CCOCC3)nc3c2CCN(c2cc(O)cc4ccccc24)C3)CC1 [Example 74, 1-(4-(7-(3-hydroxynaphthalen-1-yl)-2-(3-morpholinopropoxy)-5,6,7,8-tetrahydropyrido[3,4-d]pyrimidin-4-yl)piperazin-1-yl)prop-2-en-1-one] | 0.0001 to 1
3 | C=CC(=O)N1CCN(c2nc(OC[C@]3(C)CCCN3C)nc3c2CCN(c2cccc4ccccc24)C3)CC1CC#N (stereo partly drawn) [Example 395, 2-(1-acryloyl-4-(2-(((S)-1,2-dimethylpyrrolidin-2-yl)methoxy)-7-(naphthalen-1-yl)-5,6,7,8-tetrahydropyrido[3,4-d]pyrimidin-4-yl)piperazin-2-yl)acetonitrile] | 0.0001 to 1
4 | C=CC(=O)N1CCN(c2nc(O[C@H](C)CN(C)C)nc3c2CCN(c2c(C)ccc(F)c2O)C3)CC1 [Example 87, (R)-1-(4-(2-((1-(dimethylamino)propan-2-yl)oxy)-7-(3-fluoro-2-hydroxy-6-methylphenyl)-5,6,7,8-tetrahydropyrido[3,4-d]pyrimidin-4-yl)piperazin-1-yl)prop-2-en-1-one] | > 1
5 | C=CC(=O)N1CCN(c2nc(OCCCN3CCCCC3)nc3c2CCN(c2c(C)ccc4[nH]ncc24)C3)CC1 [Example 160, 1-(4-(7-(5-methyl-1H-indazol-4-yl)-2-(3-(piperidin-1-yl)propoxy)-5,6,7,8-tetrahydropyrido[3,4-d]pyrimidin-4-yl)piperazin-1-yl)prop-2-en-1-one] | > 1
6 | C=CC(=O)N1CCN(c2nc(OCCCN3C[C@H]4C[C@@H]3CO4)nc3c2CCN(c2ccccc2C(F)(F)F)C3)CC1CC#N (stereo partly drawn) [Example 280, 2-(4-(2-(3-((1R,4R)-2-oxa-5-azabicyclo[2.2.1]heptan-5-yl)propoxy)-7-(2-(trifluoromethyl)phenyl)-5,6,7,8-tetrahydropyrido [3,4-d]pyrimidin-4-yl)-1-acryloylpiperazin-2-yl)acetonitrile] | 0.0001 to 1
7 | C=CC(=O)N1CCN(c2nc(OC[C@@H]3CCCN3C)nc3c2CCN(c2cccc4ccc(Cl)cc24)C3)CC1CC#N (stereo partly drawn) [Example 253, 2-(1-acryloyl-4-(7-(7-chloronaphthalen-1-yl)-2-(((S)-1-methylpyrrolidin-2-yl)methoxy)-5,6,7,8-tetrahydropyrido[3,4-d]pyrimidin-4-yl)piperazin-2-yl)acetonitrile] | 0.0001 to 1
8 | C=CC(=O)N1CCN(c2nc(OC[C@@H]3CCCN3C)nc3c2CCN(c2cccc4c(F)cccc24)C3)CC1CC#N (stereo partly drawn) [Example 254, 2-[4-[7-(5-fluoro-1-naphthyl)-2-[[(2S)-1-methylpyrrolidin-2-yl]methoxy]-6,8-dihydro-5H-pyrido[3,4-d]pyrimidin-4-yl]-1-prop-2-enoyl-piperazin-2-yl]acetonitrile] | 0.0001 to 1
9 | C=CC(=O)N1CCN(c2nc(OC[C@@H]3CCCN3C)nc3c2CCN(c2ccccc2C(F)F)C3)CC1CC#N (some centres unmarked) [Example 449] | 0.0001 to 1
10 | C=CC(=O)N1CCN(c2nc(OC[C@H]3CCCN3CCO)nc3c2CCN(c2cccc4ccccc24)C3)C[C@@H]1CC#N [Example 329, 2-[(2S)-4-[2-[[(2R)-1-(2-hydroxyethyl)pyrrolidin-2-yl]methoxy]-7-(1-naphthyl)-6,8-dihydro-5H-pyrido[3,4-d]pyrimidin-4-yl]-1-prop-2-enoyl-piperazin-2-yl]acetonitrile] | 0.0001 to 1
11 | C=CC(=O)N1CCN(c2nc(N3CCCC(N(C)C)C3)nc3c2CCN(c2cccc4ccccc24)C3)C[C@@H]1CC#N (stereo partly drawn) [Example 405, 2-((2S)-1-acryloyl-4-(2-(3-(dimethylamino)piperidin-1-yl)-7-(naphthalen-1-yl)-5,6,7,8-tetrahydropyrido[3,4-d]pyrimidin-4-yl)piperazin-2-yl)acetonitrile] | 0.0001 to 1
12 | C=CC(=O)N1CCN(c2nc(OC[C@@H]3CCCN3C)nc3c2CCN(c2cccc(F)c2C(F)(F)F)C3)CC1CC#N (some centres unmarked) [Example 230] | 0.0001 to 1

Continued, values first:

Row | IC50 [µM] | SMILES
13 | 0.0001 to 1 | C=CC(=O)N1CCN(c2nc(OC[C@@H]3CC(F)(F)CN3C)nc3c2CCN(c2cccc4cccc(Cl)c24)C3)C[C@@H]1CC#N [Example 366, 2-[(2S)-4-[7-(8-chloro-1-naphthyl)-2-[[(2S)-4,4-difluoro-1-methyl-pyrrolidin-2-yl]methoxy]-6,8-dihydro-5H-pyrido[3,4-d]pyrimidin-4-yl]-1-prop-2-enoyl-piperazin-2-yl]acetonitrile]
14 | 0.0001 to 1 | C=CC(=O)N1CCN(c2nc(OC[C@@H]3CCCN3C)nc3c2CCN(c2cccc4cccc(C(F)(F)F)c24)C3)C[C@@H]1CC#N [Example 434, 2-((S)-1-acryloyl-4-(2-(((S)-1-methylpyrrolidin-2-yl)methoxy)-7-(8-(trifluoromethyl)naphthalen-1-yl)-5,6,7,8-tetrahydropyrido[3,4-d]pyrimidin-4-yl)piperazin-2-yl)acetonitrile]
15 | 0.0001 to 1 | Cc1cccc(N2CCc3c(nc(OC[C@@H]4CCCN4C)nc3N3CCN(C(=O)/C=C/CN(C)C)[C@@H](CC#N)C3)C2)c1C [Example 404, 2-((S)-1-((E)-4-(dimethylamino)but-2-enoyl)-4-(7-(2,3-dimethylphenyl)-2-(((S)-1-methylpyrrolidin-2-yl)methoxy)-5,6,7,8-tetrahydropyrido[3,4-d]pyrimidin-4-yl)piperazin-2-yl)acetonitrile]
16 | > 1 | C=CC(=O)N1CCN(c2nc(OCCCN3CCOCC3)nc3c2CCN(c2cc(O)cc4ccccc24)C3=O)CC1 [Example 121, 4-(4-acryloylpiperazin-1-yl)-7-(3-hydroxynaphthalen-1-yl)-2-(3-morpholinopropoxy)-6,7-dihydropyrido[3,4-d]pyrimidin-8(5H)-one]
17 | > 1 | C=CC(=O)N1CCN(c2nc(OCC(C)N(C)C)nc3c2CCN(c2cc(O)cc4ccccc24)C3)CC1 (centres unmarked) [Example 73, 1-(4-(2-(2-(dimethylamino)propoxy)-7-(3-hydroxynaphthalen-1-yl)-5,6,7,8-tetrahydropyrido[3,4-d]pyrimidin-4-yl)piperazin-1-yl)prop-2-en-1-one]
18 | 0.0001 to 1 | C=CC(=O)N1CCN(c2nc(OC[C@@H]3CCCN3CC)nc3c2CCN(c2cc(O)cc4ccccc24)C3)CC1 [Example 197, (S)-1-(4-(2-((1-ethylpyrrolidin-2-yl)methoxy)-7-(3-hydroxynaphthalen-1-yl)-5,6,7,8-tetrahydropyrido[3,4-d]pyrimidin-4-yl)piperazin-1-yl)prop-2-en-1-one]
19 | 0.0001 to 1 | C=CC(=O)N1CCN(c2nc(OC[C@@H]3C[C@@H](O)CN3C)nc3c2CCN(c2cccc4ccccc24)C3)CC1CC#N (stereo partly drawn) [Example 218, 2-(1-acryloyl-4-(2-(((2S,4R)-4-hydroxy-1-methylpyrrolidin-2-yl)methoxy)-7-(naphthalen-1-yl)-5,6,7,8-tetrahydropyrido[3,4-d]pyrimidin-4-yl)piperazin-2-yl)acetonitrile]
20 | > 1 | C=CC(=O)N1CCN(c2nc(OCCN(C)C)nc3c2CCN(c2cc(O)cc4ccccc24)C3)C[C@@H]1C [Example 14]
